We go through 9 compounds from US4546176A, “7-Carboxymethoxyphenylacetamido-3-cephem derivatives and antibacterial preparations containing the same” (Eisai Co., Ltd., priority 1982, dated 1985).

Molecules are shown by their SMILES. Values after ≈ are worked out from the molar mass of the structure shown.

The nature of data set [1]: Solubility in water. It is filed as physicochemical. Conditions: in distilled water at 25° C.
Data set [2] relates to Proteus morganii EP-14. Kind of data set: Antibacterial activities (MIC), Proteus morganii EP-14. It is filed as cell-based. Conditions: Morganella morganii, EP14. The source says:
(§1) (1) Antibacterial activities (MIC):

A short description of data set [3]: Urinary excretion rate in mice. Type of data set: in vivo, ICR male mice. Conditions: mouse, sc, 20 mg/kg subcutaneous, urine up to 6 hours, bioassay. The procedure:
ICR male mice (body weight: 20-30 g) were used. Each compound was dissolved in an M/15 phosphate buffer (pH 7.0) and administered in an amount of 20 mg/kg by the subcutaneous route. Urine was collected up to 6 hours after the administration. The concentration of the compound was determined by the bioassey technique (the agar-well method) using Pseudomonas aeruginosa as a test microorganism. On the basis of the thus-determined concentration, its excreted amount was obtained. The urinary excretion rate was then calculated from the excreted amount based on the amount administered.

In data set [4] the test system is Ser. marcescens ES-75. Kind of data set: Antibacterial activities (MIC), Ser. marcescens ES-75. Type of data set: cell-based. The note with it: Serratia marcescens, ES75.
Source text: as §1

Data set [5] relates to Kleb. pneumoniae EK-6. Put plainly: Antibacterial activities (MIC), Kleb. pneumoniae EK-6. Type of data set: cell-based. The note with it: Klebsiella pneumoniae, EK6.
Source text: as §1

In data set [6] the test system is Pseud. aeruginosa EP-01. Put plainly: Antibacterial activities (MIC), Pseud. aeruginosa EP-01. It is filed as cell-based. The note with it: Pseudomonas aeruginosa, EP01.
Source text: as §1

The nature of data set [7]: Acute toxicity LD50 (mouse, oral). Conditions: in vivo. The source says:
The acute toxicity values [LD50 (mouse, oral)] of the following compounds were each 4 g/kg or greater;

Data set [8] deals with Staph. aureus 209-P. Put plainly: Antibacterial activities (MIC), Staph. aureus 209-P. Type of data set: cell-based. Conditions: Staphylococcus aureus.
Source text: as §1

The subject of data set [9] is Escher. coli NIHJ. Put plainly: Antibacterial activities (MIC), Escher. coli NIHJ. Type of data set: cell-based. Conditions: Escherichia coli.
Source text: as §1

In data set [10] the test system is Proteus vulgaris E-18. Put plainly: Antibacterial activities (MIC), Proteus vulgaris E-18 (lactamase producing). Type of data set: cell-based. Conditions: E18; Proteus vulgaris E-18, lactamase producing bacteria.
Source text: as §1
*Lactamase producing bacteria.

`Cc1oc2cc(O)c(O)cc2c(=O)c1C(=O)N[C@@H](C(=O)N[C@@H]1C(=O)N2C(C(=O)[O-])=C(C[n+]3cccc(CC(=O)O)c3)CS[C@H]12)c1ccc(OCC(=O)O)cc1` [Example 43, Disodium 7β-[D-2-(4-carboxymethoxyphenyl)-2-(6,7-dihydroxy-2-methyl-4-oxo-4H-1-benzopyran-3-carboxamido)acetamido]-3-(3-carboxymethylpyridinium)-methyl-3-cephem-4-carboxylate] gave a solubility in [1] of no less than 300 mg/mL. For the same compound, the MIC was 12.5 µg/mL in data set [2]; 0.2 µg/mL in data set [4]; no more than 0.05 µg/mL in data set [5]; 0.1 µg/mL in data set [6]; 100 µg/mL in data set [8]; 0.8 µg/mL in data set [9]. In addition, the dose excreted at 6 h in [3] was determined as 25%. In data set [7], this compound showed a 50% lethal dose (LD50) of no less than 4000 mg/kg.

`Cc1oc2cc(O)c(O)cc2c(=O)c1C(=O)N[C@@H](C(=O)N[C@@H]1C(=O)N2C(C(=O)[O-])=C(C[n+]3ccc(CCS(=O)(=O)O)cc3)CS[C@H]12)c1ccc(OCC(=O)O)cc1` [Example 42, Disodium 7β-[D-2-(4-carboxymethoxyphenyl)-2-(6,7-dihydroxy-2-methyl-4-oxo-4H-1-benzopyran-3-carboxamido)acetamido]-3-[4-(2-sulfoethyl)-pyridinium]methyl-3-cephem-4-carboxylate]: the solubility in data set [1] was no less than 300 mg/mL. Besides, the MIC in data set [2] is 3.13 µg/mL; in [4], 0.2 µg/mL; in data set [5] it was no more than 0.05 µg/mL; in [6] it was 0.2 µg/mL; in [8], 100 µg/mL; in data set [9], 0.2 µg/mL. For the same compound, the dose excreted at 6 h in data set [3] was determined as 46%. In data set [7], this compound registered an LD50 of no less than 4000 mg/kg.

`Cc1oc2cc(O)c(O)cc2c(=O)c1C(=O)N[C@@H](C(=O)N[C@@H]1C(=O)N2C(C(=O)O)=C(CSc3nnnn3CC(=O)O)CS[C@H]12)c1ccc(OCC(=O)O)cc1` [Example 15, Trisodium 7β-[D-2-(4-carboxymethoxyphenyl)-2-(6,7-dihydroxy-2-methyl-4-oxo-4H-1-benzopyran-3-carboxamido)acetamido]-3-(1-carboxymethyl-5-tetrazolyl)thiomethyl-3-cephem-4-carboxylate] came in with a solubility in data set [1] of no less than 300 mg/mL. The MIC in [2] is 3.13 µg/mL; in data set [4], 0.1 µg/mL; in [5], no more than 0.05 µg/mL; in data set [6] it was 0.2 µg/mL; in data set [8], 100 µg/mL; in data set [9], 0.2 µg/mL. The dose excreted at 6 h in data set [3] was 32%. This compound also showed an LD50 in data set [7] of no less than 4000 mg/kg.

`CO[C@@]1(NC(=O)[C@H](NC(=O)c2coc3cc(O)c(O)cc3c2=O)c2ccc(OCC(=O)O)cc2)C(=O)N2C(C(=O)O)=C(COC(C)=O)CS[C@@H]21` [Example 31, 7β-[D-2-(4-Carboxymethoxyphenyl)-2-(6,7-dihydroxy-4-oxo-4H-1-benzopyran-3-carboxamido)acetamido]-7α-methoxy-3-acetoxymethyl-3-cephem-4-carboxylic acid]: the MIC was 1.56 µg/mL (≈ 2.19 µM) in [10]; 6.25 µg/mL (≈ 8.76 µM) in [2]; 0.4 µg/mL (≈ 0.561 µM) in data set [4]; no more than 0.05 µg/mL in data set [5]; 0.4 µg/mL (≈ 0.561 µM) in [6]; 50 µg/mL (≈ 70.1 µM) in [8]. In addition, the MIC in data set [9] was 0.8 µg/mL (≈ 1.12 µM).

`CO[C@@]1(NC(=O)[C@H](NC(=O)c2c(C)oc3c(OC(C)=O)c(OC(C)=O)ccc3c2=O)c2ccc(OCC(=O)O)cc2)C(=O)N2C(C(=O)O)=C(CSc3nnnn3CC(=O)O)CS[C@@H]21` [Example 24, 7β-[D-2-(4-Carboxymethoxyphenyl)-2-(7,8-diacetoxy-2-methyl-4-oxo-4H-1-benzopyran-3-carboxamido)-acetamido]-7α-methoxy-3-(1-carboxymethyl-4-tetrazolyl)thiomethyl-3-cephem-4-carboxylic acid]: the MIC in data set [10] is 3.13 µg/mL (≈ 3.43 µM); in [2], 12.5 µg/mL (≈ 13.7 µM); in data set [4], 0.8 µg/mL (≈ 0.877 µM); in [5], no more than 0.05 µg/mL; in data set [6], 0.8 µg/mL (≈ 0.877 µM); in data set [8] it was 100 µg/mL (≈ 110 µM). This compound also gave an MIC in data set [9] of 0.8 µg/mL (≈ 0.877 µM).

Take `CO[C@@]1(NC(=O)[C@H](NC(=O)c2c(C)oc3c(O)c(O)ccc3c2=O)c2ccc(OCC(=O)O)cc2)C(=O)N2C(C(=O)O)=C(CSc3nnnn3CC(=O)O)CS[C@@H]21` [Example 28, Trisodium 7β-[D-2-(4-carboxymethoxyphenyl)-2-(7,8-dihydroxy-2-methyl-4-oxo-4H-1-benzopyran-3-carboxamido)-acetamido]-7α-methoxy-3-(1-carboxymethyl-5-tetrazolyl)-thiomethyl-3-cephem-4-carboxylate]: the MIC in [10] is 3.13 µg/mL; in [2] it was 6.25 µg/mL; in data set [4], 0.8 µg/mL; in data set [5], no more than 0.05 µg/mL; in [6], 0.8 µg/mL; in data set [8] it was 100 µg/mL. Also, 0.8 µg/mL was the least that counted as inhibitory in [9] (MIC). Moreover, in data set [3], the dose excreted at 6 h was determined as 24%.

Turning to `CCn1cc(C(=O)N[C@@H](C(=O)N[C@@H]2C(=O)N3C(C(=O)[O-])=C(C[n+]4ccc(C(N)=O)cc4)CS[C@H]23)c2ccc(OCC(=O)O)cc2)c(=O)c2cc(O)c(O)cc21` [Example 53, Sodium 7β-[D-2-(4-carboxymethoxyphenyl)-2-(6,7-dihydroxy-1-ethyl-1,4-dihydro-4-oxoquinoline-3-carboxamido)acetamido]-3-(4-carbamoylpyridinium)-methyl-3-cephem-4-carboxylate], the solubility in data set [1] was no less than 300 mg/mL. In addition, the MIC is 6.25 µg/mL in data set [2]; 0.8 µg/mL in data set [4]; no more than 0.05 µg/mL in [5]; 0.2 µg/mL in data set [6]; 50 µg/mL in data set [8]; 0.4 µg/mL in [9]. The dose excreted at 6 h in [3] is 13%. Moreover, the LD50 in data set [7] is no less than 4000 mg/kg.

Take `CO[C@@]1(NC(=O)[C@H](NC(=O)c2c(C)oc3cc(O)c(O)cc3c2=O)c2ccc(OCC(=O)O)cc2)C(=O)N2C(C(=O)O)=C(COC(C)=O)CS[C@@H]21` [Example 33, Disodium 7β-[D-2-(4-carboxymethoxyphenyl)-2-(6,7-dihydroxy-2-methyl-4-oxo-4H-1-benzopyran-3-carboxamido)acetamido]-7α-methoxy-3-acetoxymethyl-3-cephem-4-carboxylate]: the MIC in data set [10] was 1.56 µg/mL; in data set [2], 12.5 µg/mL; in data set [4] it was 0.8 µg/mL; in [5], no more than 0.05 µg/mL; in data set [6] it was 0.2 µg/mL; in data set [8], 50 µg/mL. In data set [9], this compound yielded an MIC of 0.8 µg/mL.

For `CO[C@@]1(NC(=O)[C@H](NC(=O)c2c(C)oc3cc(OC(C)=O)c(OC(C)=O)cc3c2=O)c2ccc(OCC(=O)O)cc2)C(=O)N2C(C(=O)O)=C(CSc3nnnn3CC(=O)O)CS[C@@H]21` [Example 21], the minimal inhibitory concentration (MIC) in [10] was 0.4 µg/mL (≈ 0.439 µM); in data set [2], 3.13 µg/mL (≈ 3.43 µM); in data set [4], 0.1 µg/mL (≈ 0.11 µM); in data set [5] it was no more than 0.05 µg/mL; in [6], 0.2 µg/mL (≈ 0.219 µM); in data set [8], 100 µg/mL (≈ 110 µM). Moreover, inhibition of growth in data set [9] (MIC) required 0.4 µg/mL (≈ 0.439 µM).

Broadly, the solubility is how much of the substance goes into solution per volume. Read a high solubility as a readily soluble substance. The MIC is the lowest concentration that inhibits growth of the organism. One may read the LD50 as the dose expected to kill half of the subjects tested. A low value points to a more toxic substance.
